The values below are quoted from earlier work in article PMC12308805, “Ultrahigh-Throughput Virtual Screening Strategies against PPI Targets: A Case Study of STAT Inhibitors” (Journal of Chemical Information and Modeling, 2025).

The first series deals with STAT3. The note with it: sheet 6QHD_actives_decoys, retrospective screening set for STAT3 SH2 domain (PDB 6QHD); decoys are presumed inactives, not tested; ref DUD-E; cited from earlier work.
On to `CCOC(=O)c1ccc(NC(=O)c2cc([N+](=O)[O-])ccc2NC(=O)CNCc2ccc3c(c2)OCO3)cc1` [Decoy729], for which the Type entry is given as “Inactive (Decoy)”.
Regarding `C[C@H](N[C@H](C)c1ccc(Cl)s1)c1ccc(Cl)c(Cl)c1Cl` [Decoy730], the Type entry is “Inactive (Decoy)”.
For `CCCOC(=O)c1ccc(OCC(=O)N/N=C(/S)NC(=O)c2ccccc2[N+](=O)[O-])cc1` [Decoy731], the Type result is listed as “Inactive (Decoy)”.
Regarding `C=C1NC(=O)[C@@H]([C@@H](C)O)NC(=O)[C@@H](C(C)C)NC(=O)[C@@H](C)[C@@H](O)[C@H](C)[C@@H](CCCCCCCCC)OC1=O` [Decoy732], the Type result is “Inactive (Decoy)”.
On to `CCOc1ccc(NC(=O)CCC(=O)NNC(=S)NC(=O)c2cc([N+](=O)[O-])cc([N+](=O)[O-])c2)cc1` [Decoy733], for which the Type entry was “Inactive (Decoy)”.
As for `O=C(NC(CO[C@H]1[C@H](O)[C@H](O)[C@H](O)O[C@@H]1CO)CO[C@H]1[C@H](O)[C@H](O)[C@@H](O)O[C@@H]1CO)c1ccc(C2(C(F)(F)F)N=N2)cc1` (stereo partly shown) [Decoy734], the Type result is “Inactive (Decoy)”.
For the molecule `CCOC(=O)CNC(=O)[C@H](c1ccc(OC)cc1)N(C(=O)c1snc(C(N)=O)c1N)c1cccc(C)c1` [Decoy735], the Type entry is listed as “Inactive (Decoy)”.
Turning to `COc1cccc(/C=N/NC(=O)[C@H](C)Sc2nnc(S[C@H](C)C(=O)N/N=C/c3cccc(OC)c3OC)s2)c1OC` [Decoy736], the Type result is on record as “Inactive (Decoy)”.
Take `COc1cc(CNC(=O)CSc2n[nH]c(N/N=C/c3cc(OC)c(O)cc3[N+](=O)[O-])n2)cc(OC)c1` [Decoy737]: the Type result is reported as “Inactive (Decoy)”.
Take `COc1ccc(OC[C@@H](O)Cn2c(C)c(C#N)c(=O)n(C[C@@H](O)COc3ccc(OC)cc3)c2=O)cc1` [Decoy738]: the Type result was “Inactive (Decoy)”.
For the molecule `O=C(O)CN(CC(=O)O)Cc1cc2c(cc1O)Oc1cc(O)c(CN(CC(=O)O)CC(=O)O)cc1C21OC(=O)c2ccccc21` [Decoy739], the Type entry is listed as “Inactive (Decoy)”.
As to `CCOC(=O)[C@@](NC(=O)c1cccc(Cl)c1)(Nc1ccc(S(=O)(=O)Nc2cc(C)nc(C)n2)cc1)C(F)(F)F` [Decoy740], the Type entry is “Inactive (Decoy)”.

Still in this series, the particulars now being: sheet 6QHD_actives_decoys; retrospective screening set for STAT3 SH2 domain (PDB 6QHD); decoys generated with DUD-E and presumed inactive, not tested; ref DUD-E; cited from earlier work.
As to `COC1=C(S[C@@H]2O[C@H](COC(C)=O)[C@@H](OC(C)=O)[C@H](OC(C)=O)[C@H]2OC(C)=O)C(=O)c2c(O)ccc(O)c2C1=O` [Decoy719], the Type entry was “Inactive (Decoy)”.
With `CC[C@H](C)[C@H](NC(=O)CNC(=O)CCc1c(C)c2cc3c(C)c(C)oc3c(C)c2oc1=O)C(=O)NCCCCCC(=O)O` [Decoy720], the Type entry is reported as “Inactive (Decoy)”.
As to `CCOc1ccc(NC(=O)CSC2=C(C#N)[C@H](c3ccco3)C(C(=O)Nc3ccc(OC)cc3)=C(C)N2)cc1` [Decoy721], the Type entry was “Inactive (Decoy)”.
As to `CCOC(=O)c1c(NC(=O)CSc2nnc(CNC(=O)c3ccco3)n2C)sc2c1CCC2` [Decoy722], the Type entry is “Inactive (Decoy)”.
Consider `CCCCn1c(N)c(N(CCOC)C(=O)CSc2nc3ccccc3s2)c(=O)[nH]c1=O` [Decoy723], for which the Type result is listed as “Inactive (Decoy)”.
As for `COc1ccccc1CNC(=O)C[C@@H]1[C@H](O)CC[C@@H]2[C@](C)(CO)[C@H](OC(=O)Nc3cc(OC)c(OC)c(OC)c3)CC[C@]21C` [Decoy724], the Type entry is recorded as “Inactive (Decoy)”.
`COc1ccccc1NS(=O)(=O)c1cccc(C(=O)NNC(=O)CCn2c(C)csc2=O)c1` [Decoy725]: the Type result is “Inactive (Decoy)”.
For the molecule `CCN(CC)S(=O)(=O)c1cccc(-c2nnc(SCC(=O)Nc3cc(C)cc(C)c3)n2N)c1` [Decoy726], the Type entry is on record as “Inactive (Decoy)”.
Consider `CC(=O)Nc1ccc(S(=O)(=O)N(CCN2CCOCC2)CC(=O)N(Cc2ccc3c(c2)OCO3)Cc2ccc(C)o2)cc1` [Decoy727], for which the Type entry is given as “Inactive (Decoy)”.
As for `COc1ccc(CCN2C(=O)[C@H]3[C@@H](C2=O)[C@]2(N[C@@H]3Cc3ccc(O)c(O)c3)C(=O)Nc3ccc(Cl)cc32)cc1OC` [Decoy728], the Type entry is on record as “Inactive (Decoy)”.
